# Laboratory results: publication PMC4492764, “Evaluation of biomarkers for in vitro prediction of drug-induced nephrotoxicity: comparison of HK-2, immortalized human proximal tubule epithelial, and primary cultures of human proximal tubular cells” (Pharmacology Research & Perspectives, 2015)
# Where a name gives a salt, the structure may show the parent alone.
# Experiments:
# Assay type in all cases: cell-based, human
# NGAL = NGAL protein ELISA in freshly isolated hPT cells; conditions: for NGAL protein upregulation in hPT cells: high doses, within 24 h; for Upregulation of NGAL hPT P(L): protein levels in cell lysates, table title says 72 h time point
# Experimental: hPT cells were derived from whole human kidneys procured by the International Institute for the Advancement of Medicine (Edison, NJ). All tissues were scored by a pathologist as normal (i.e., derived from noncancerous, nondiseased tissue). […] Whole kidneys were perfused with Wisconsin medium and kept on ice until they arrived at the laboratory, which was usually within 24 h of removal from the donor. All buffers were continuously bubbled with 95% O2/5% CO2 and were maintained at 37°C. Minced cortical pieces from whole kidneys were subjected to collagenase digestion for 60 min, after which the supernatant was filtered through a 70-μm mesh filter to remove tissue fragments, centrifuged at 150g for 7 min, and the pellet resuspended in Dulbecco’s Modified Eagle’s Medium: […] Approximately, 5–7 × 10^6 cells were obtained per 1 g of human kidney cortical tissue. […] Composition of this supplemented medium was based on earlier work establishing optimal conditions for primary culture of rat PT cells (Lash et al., [1995]). Basal medium was a 1:1 mixture of DMEM/F12. […] Cultures were grown at 37°C in a humidified incubator under an atmosphere of 95% air/5% CO2 at pH 7.4. Cultures were grown to approximately 80–90% confluence (generally 5–6 days) prior to experiments. Cells were harvested by either scraping the flasks with a Teflon scraper or by brief incubation with Cellstripper (Cellgro, Herndon, VA) (in Ca^2+- and Mg^2+-free Hanks’ buffer). KIM-1 (DY1750), NGAL (DY1757), and M-CSF (DY216) Duo-Set® ELISA kits were purchased from R&D systems (Minneapolis, MN). Sandwich-ELISA experiments were conducted following the manufacturer’s instructions with slight modifications. A 96-well microplate (MaxiSorp®, Nunc, Thermo Scientific, NSW, Australia) was coated with 100 μL of capture antibodies (diluted 1:200 in PBS) and incubated overnight. The plate was then washed twice with washing buffer (0.05% Tween 20 in PBS, pH 7.4) and blocked by adding 300 μL of blocking buffer (1% bovine serum albumin (BSA) in PBS) for 1 h at room temperature. After washing two times with PBS, 100 μL of samples (cell culture media or cell lysates) or standards were then added to each well and incubated for 2 h at room temperature. The biotinylated detection antibodies were then diluted in blocking buffer, added to each well and incubated for 2 h. Horseradish peroxidase (HRP)-labeled streptavidin (100 μL) was then added to bind to detection antibodies. To each well, 100 μL of substrate solution (1:1 mixture of H2O2 and tetramethylbenzidine) was added and incubated for 20 min before reaction termination with 50 μL of stop solution (2N H2SO4). The optical density of each well was measured at 450 nm using a POLARstar Omega plate reader (BMG Labtech). All assays were performed at least three times, with at least two technical replicates in each assay.
# KIM-1 mRNA = KIM-1 mRNA qRT-PCR in hRPTECs; design: key to Upregulation of KIM-1 hRPTECs R: +: statistically significant increase; −: no significant increase; conditions: mRNA levels; 72 h time point
# Experimental: (§1) HK-2 cells (ATCC CRL-2190; Manassas, VA) were maintained in DMEM/F12 (Life Technologies; Sydney, NSW, Australia) supplemented with 5 μg/mL insulin, 5 μg/mL transferrin, 5 ng/mL sodium selenite (ITS; Roche; […] (passage 2) and culture kits were purchased from Lonza. […] were maintained in Renal Epithelial Cell BulletKitTM (CC-3190, Lonza) at 37°C and 5% CO2 atmosphere. Cells were passaged to 96-well plates with a density of 4000 cells/well. After 24 h culture, compounds with different concentration series were added into each well and incubated for 4, 24, 48, and 72 h. HK-2 and […] were treated with compounds for 4, 24, 48, and 72 h, then the cells were lysed and the RNA reverse transcribed with the TaqMan® Gene Expression Cells-to-CTTM Kit (Life Technologies) according to the manufacturer's instructions. […] Hs00273334_m1), Lcn2 (NGAL; Hs01008571_m1), and Csf1 (M-CSF; Hs00174164_m1). All probes span an exon-exon junction. The real-time quantitative reverse transcription PCR (qRT-PCR) was performed in a 10 μl final reaction mixture using a ViiA 7TM system (Applied Biosystems®, Sydney, NSW, Australia) based on the following thermo cycling conditions: 10 min at 95°C for one cycle, 15 sec at 95°C, 60 sec at 60°C for 40 cycles. The ViiA 7TM software was used for data analysis with Hprt1 expression used for normalization. All assays were performed at least three times, with at least two technical replicates in each assay.
# KIM-1 = KIM-1 protein ELISA in HK-2 cells; design: key: +: statistically significant increase; −: no significant increase; conditions: protein levels in culture medium; 72 h time point
# Experimental: HK-2 cells (ATCC CRL-2190; Manassas, VA) were maintained in DMEM/F12 (Life Technologies; Sydney, NSW, Australia) supplemented with 5 μg/mL insulin, 5 μg/mL transferrin, 5 ng/mL sodium selenite (ITS; Roche; […] (passage 2) and culture kits were purchased from Lonza. […] were maintained in Renal Epithelial Cell BulletKitTM (CC-3190, Lonza) at 37°C and 5% CO2 atmosphere. Cells were passaged to 96-well plates with a density of 4000 cells/well. After 24 h culture, compounds with different concentration series were added into each well and incubated for 4, 24, 48, and 72 h. KIM-1 (DY1750), NGAL (DY1757), and M-CSF (DY216) Duo-Set® ELISA kits were purchased from R&D systems (Minneapolis, MN). Sandwich-ELISA experiments were conducted following the manufacturer's instructions with slight modifications. A 96-well microplate (MaxiSorp®, Nunc, Thermo Scientific, NSW, Australia) was coated with 100 μL of capture antibodies (diluted 1:200 in PBS) and incubated overnight. The plate was then washed twice with washing buffer (0.05% Tween 20 in PBS, pH 7.4) and blocked by adding 300 μL of blocking buffer (1% bovine serum albumin (BSA) in PBS) for 1 h at room temperature. After washing two times with PBS, 100 μL of samples (cell culture media or cell lysates) or standards were then added to each well and incubated for 2 h at room temperature. The biotinylated detection antibodies were then diluted in blocking buffer, added to each well and incubated for 2 h. Horseradish peroxidase (HRP)-labeled streptavidin (100 μL) was then added to bind to detection antibodies. To each well, 100 μL of substrate solution (1:1 mixture of H2O2 and tetramethylbenzidine) was added and incubated for 20 min before reaction termination with 50 μL of stop solution (2N H2SO4). The optical density of each well was measured at 450 nm using a POLARstar Omega plate reader (BMG Labtech). All assays were performed at least three times, with at least two technical replicates in each assay.
# NGAL mRNA = NGAL mRNA qRT-PCR in HK-2 cells; design: key to Upregulation of NGAL HK-2 R: +: statistically significant increase; −: no significant increase; conditions: for Upregulation of NGAL HK-2 R: mRNA levels, 72 h time point
# Experimental: as §1
Compound,NGAL protein upregulation in hPT cells (NGAL),Upregulation of NGAL hPT P(L) (NGAL),Upregulation of KIM-1 hRPTECs R (KIM-1 mRNA),Upregulation of KIM-1 HK-2 P (KIM-1),"NGAL mRNA level in HK-2 cells (NGAL mRNA; 72 h exposure, P < 0.01)",Upregulation of NGAL HK-2 R (NGAL mRNA)
"N.N.[Cl][Pt][Cl] [Cisplatin, cisplatin]",significant upregulation,>60-fold,−,−,clearly increased,+
"CNC(C)C1CCC(N)C(OC2C(N)CC(N)C(OC3OCC(C)(O)C(NC)C3O)C2O)O1 (stereo not shown) [Gentamicin, gentamicin sulfate]",significant upregulation,>60-fold,−,−,,−
Colistin sulfate,significant upregulation,>60-fold,−,−,,−
